Earlier results as cited in patent publication US10632083B2, “Ophthalmic compositions” (SaCSh Corp., priority 2016, dated 2020).

Compound: [H]/N=C(\N/C(=N/[H])NCCCCCCNC(=N)NC(=N)Nc1ccc(Cl)cc1)Nc1ccc(Cl)cc1 [chlorhexidine, N,N″″1,6-Hexanediylbis[N′-(4-chlorophenyl)(imidodicarbonimidic diamide)]]
- eye damage after topical chlorhexidine accidentally got into the eyes (Tabor et al. 1989, four cases): irreversible corneal damage
- eye damage after accidental application to patients undergoing eye surgery (van Rij et al. 1995, led to bullous keratopathy, all affected patients required corneal transplant): immediate corneal edema
